In PubChem BioAssay AID248 (DTP/NCI, 2004):
Toxic doses and inconclusive results are not listed. No stated cut-off is given here; in the data, active means T/C of 150% or more; inactive means T/C below 125%.

System: L1210 leukemia ip in BDF1 mice, survival T/C
Assay: NCI In Vivo Anticancer Drug Screen. Data for tumor model L1210 Leukemia (intraperitoneal) in B6D2F1 (BDF1) mice
Conditions: endpoint: mean survival time, higher = longer survival
Summary of the method: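 Survival endpoint. Drug-treated group vs vehicle group, expressed as T divided by C. Tumor passaged by transplantation.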

[1] = dose: 100.0 mg/kg/injection, schedule: Q04DX002 (ip), vehicle: saline
[2] = dose: 200.0 mg/kg/injection, schedule: Q04DX002 (ip), vehicle: saline
[3] = dose: 400.0 mg/kg/injection, schedule: Q04DX002 (ip), vehicle: saline
[4] = dose: 100.0 mg/kg/injection, schedule: Q01DX009 (ip), vehicle: saline with Tween-80
[5] = dose: 200.0 mg/kg/injection, schedule: Q01DX009 (ip), vehicle: saline with Tween-80
[6] = dose: 400.0 mg/kg/injection, schedule: Q01DX009 (ip), vehicle: saline with Tween-80
[7] = dose: 100.0 mg/kg/injection, schedule: Q01DX001 (ip), vehicle: Klucel (hydroxypropylcellulose) (HPC)
[8] = dose: 200.0 mg/kg/injection, schedule: Q01DX001 (ip), vehicle: Klucel (hydroxypropylcellulose) (HPC)
[9] = dose: 400.0 mg/kg/injection, schedule: Q01DX001 (ip), vehicle: Klucel (hydroxypropylcellulose) (HPC)
[10] = dose: 100.0 mg/kg/injection, schedule: Q01DX001 (ip), vehicle: carboxymethylcellulose (CMC)
[11] = dose: 200.0 mg/kg/injection, schedule: Q01DX001 (ip), vehicle: carboxymethylcellulose (CMC)
[12] = dose: 400.0 mg/kg/injection, schedule: Q01DX001 (ip), vehicle: carboxymethylcellulose (CMC)
[13] = dose: 50.0 mg/kg/injection, schedule: Q01DX009 (ip), vehicle: Klucel (hydroxypropylcellulose) (HPC)
[14] = dose: 100.0 mg/kg/injection, schedule: Q01DX009 (ip), vehicle: Klucel (hydroxypropylcellulose) (HPC)
[15] = dose: 100.0 mg/kg/injection, schedule: Q04DX003 (ip), vehicle: Klucel (hydroxypropylcellulose) (HPC)
[16] = dose: 200.0 mg/kg/injection, schedule: Q01DX009 (ip), vehicle: Klucel (hydroxypropylcellulose) (HPC)
[17] = dose: 200.0 mg/kg/injection, schedule: Q04DX003 (ip), vehicle: Klucel (hydroxypropylcellulose) (HPC)
[18] = dose: 400.0 mg/kg/injection, schedule: Q04DX003 (ip), vehicle: Klucel (hydroxypropylcellulose) (HPC)
[19] = dose: 100.0 mg/kg/injection, schedule: Q04DX002 (ip), vehicle: Klucel (hydroxypropylcellulose) (HPC)
[20] = dose: 200.0 mg/kg/injection, schedule: Q04DX002 (ip), vehicle: Klucel (hydroxypropylcellulose) (HPC)
[21] = dose: 400.0 mg/kg/injection, schedule: Q01DX009 (ip), vehicle: Klucel (hydroxypropylcellulose) (HPC)
[22] = dose: 400.0 mg/kg/injection, schedule: Q04DX002 (ip), vehicle: Klucel (hydroxypropylcellulose) (HPC)
[23] = dose: 100.0 mg/kg/injection, schedule: Q01DX001 (ip), vehicle: saline

Measured: T/C

[N-]=[N+]=CC(=O)NCC(N)=O
inactive: dose: 125.0 mg/kg/injection, schedule: Q01DX009 (ip), vehicle: other 110 % of control | dose: 125.0 mg/kg/injection, schedule: Q01DX009 (sc), vehicle: other 91 % of control | dose: 222.0 mg/kg/injection, schedule: Q01DX Z (ip), vehicle: water 121 % of control | dose: 250.0 mg/kg/injection, schedule: Q01DX009 (sc), vehicle: other 97 % of control | dose: 500.0 mg/kg/injection, schedule: Q01DX009 (sc), vehicle: other 103 % of control | dose: 750.0 mg/kg/injection, schedule: Q01DX009 (sc), vehicle: other 97 % of control | dose: 750.0 mg/kg/injection, schedule: Q01DX Z (ip), vehicle: water 104 % of control

CC(C)(C=O)C(=O)Nc1ccccc1
inactive: [1] 103 % of control | [2] 106 % of control | [3] 103 % of control

CSc1cc(C)c(OC(=O)Nc2ccccc2F)c(CO)c1
inactive: [4] 97 % of control | [5] 98 % of control | [6] 114 % of control

O=C(OC1CCCC1c1ccccc1)c1cccc([N+](=O)[O-])c1 (stereo not given)
inactive: dose: 50.0 mg/kg/injection, schedule: Q01DX009 (ip), vehicle: saline with Tween-80 90 % of control | [4] 90 % of control | [5] 87 % of control

Cc1cc(O)c2c(c1)C(=O)C13C(=C2O)C(=O)C2C(O)C1C1C(O)C3C(=O)C3=C(O)c4c(O)cc(C)cc4C(=O)C321 (stereo not given)
inactive: dose: 20.0 mg/kg/injection, schedule: Q04DX003 (ip), vehicle: saline with Tween-80 107 % of control | dose: 40.0 mg/kg/injection, schedule: Q04DX003 (ip), vehicle: saline with Tween-80 100 % of control | dose: 80.0 mg/kg/injection, schedule: Q04DX003 (ip), vehicle: saline with Tween-80 102 % of control

O=Cc1ccc(OCc2cccc([N+](=O)[O-])c2)cc1
inactive: [7] 113 % of control | [8] 100 % of control | [9] 87 % of control

C=CCC(CC=C)(C(N)=O)c1ccc(OC)cc1
inactive: [10] 100 % of control | [11] 97 % of control | [12] 111 % of control

CC/C(=C(/Cl)c1ccccc1)c1ccccc1
inactive: [7] 98 % of control | [8] 102 % of control | [9] 100 % of control

CC1(C)N(C(=S)Nc2ccccc2)C1(C)C
inactive: [13] 106 % of control | dose: 50.0 mg/kg/injection, schedule: Q04DX003 (ip), vehicle: Klucel (hydroxypropylcellulose) (HPC) 92 % of control | [14] 95 % of control | [15] 103 % of control | [16] 92 % of control | [17] 102 % of control

O=S(=O)(/C=C\c1ccccc1)N(c1ccccc1)c1ccccc1
inactive: [15] 102 % of control | [17] 110 % of control | [18] 96 % of control

Cc1ccc(S(=O)(=O)NC(CCl)=NCC23CC4CC(CC(C4)C2)C3)cc1
inactive: dose: 31.3 mg/kg/injection, schedule: Q04DX002 (ip), vehicle: Klucel (hydroxypropylcellulose) (HPC) 113 % of control | dose: 62.5 mg/kg/injection, schedule: Q04DX002 (ip), vehicle: Klucel (hydroxypropylcellulose) (HPC) 94 % of control | dose: 125.0 mg/kg/injection, schedule: Q04DX002 (ip), vehicle: Klucel (hydroxypropylcellulose) (HPC) 94 % of control

Cc1ccc(N=Nc2ccc(C)cc2NC(=O)c2cccc3ccccc23)cc1
inactive: [14] 92 % of control | [19] 104 % of control | [16] 100 % of control | [20] 96 % of control | [21] 95 % of control | [22] 93 % of control

CC(=O)OCC1CCC1
inactive: [23] 93 % of control | [1] 105 % of control | dose: 200.0 mg/kg/injection, schedule: Q01DX001 (ip), vehicle: saline 91 % of control | [2] 118 % of control | dose: 400.0 mg/kg/injection, schedule: Q01DX001 (ip), vehicle: saline 90 % of control | [3] 96 % of control

O=C(c1cccnc1)c1cccnc1
inactive: [15] 91 % of control | [17] 100 % of control | [18] 97 % of control

CCOC(=O)c1ncn(C2OC(CO)C(O)C2O)c1N (stereo not given)
inactive: dose: 12.5 mg/kg/injection, schedule: Q01DX005 (ip), vehicle: saline with Tween-80 90 % of control | dose: 25.0 mg/kg/injection, schedule: Q01DX005 (ip), vehicle: saline with Tween-80 100 % of control | dose: 50.0 mg/kg/injection, schedule: Q01DX005 (ip), vehicle: saline with Tween-80 90 % of control | dose: 100.0 mg/kg/injection, schedule: Q01DX005 (ip), vehicle: saline with Tween-80 92 % of control | dose: 200.0 mg/kg/injection, schedule: Q01DX005 (ip), vehicle: saline with Tween-80 93 % of control

CC1=C2CCC(C)C23C2C(=O)OC(=O)C2C1C1C(=O)OC(=O)C13 (stereo not given)
inactive: dose: 12.5 mg/kg/injection, schedule: Q01DX009 (ip), vehicle: saline 107 % of control | dose: 25.0 mg/kg/injection, schedule: Q01DX009 (ip), vehicle: saline 102 % of control | dose: 50.0 mg/kg/injection, schedule: Q01DX009 (ip), vehicle: saline 103 % of control

COC(=O)c1nc2c(N)nc(-c3ccccc3)nc2nc1N
inactive: [15] 103 % of control | [17] 98 % of control | [18] 106 % of control

OCCNc1ccc(C2=NCCO2)cc1
inactive: [4] 106 % of control | [5] 97 % of control | [6] 91 % of control

COc1ccc([N+](=O)[O-])cc1NC(=O)Nc1ccc(Nc2ccccc2)cc1
inactive: [13] 97 % of control | [14] 94 % of control | [16] 90 % of control

CCC(=O)Nc1cc(C)ccc1Cl
inactive: [14] 101 % of control | [16] 103 % of control | [21] 103 % of control

O=C1c2cc(Br)ccc2-c2c(F)cc(Br)cc21
inactive: dose: 50.0 mg/kg/injection, schedule: Q01DX001 (ip), vehicle: carboxymethylcellulose (CMC) 105 % of control | [10] 100 % of control | [11] 100 % of control | [12] 94 % of control

O=c1[nH]cnc2[nH]ncc12
inactive: dose: 50.0 mg/kg/injection, schedule: Q01DX001 (ip), vehicle: saline with Tween-80 95 % of control | dose: 69.0 mg/kg/injection, schedule: Q01DX015 (ip), vehicle: carboxymethylcellulose (CMC) 94 % of control | [10] 106 % of control | dose: 100.0 mg/kg/injection, schedule: Q01DX001 (ip), vehicle: saline with Tween-80 105 % of control | [23] 101 % of control | dose: 104.0 mg/kg/injection, schedule: Q01DX015 (ip), vehicle: carboxymethylcellulose (CMC) 95 % of control | dose: 156.0 mg/kg/injection, schedule: Q01DX015 (ip), vehicle: carboxymethylcellulose (CMC) 96 % of control | [11] 102 % of control | dose: 234.0 mg/kg/injection, schedule: Q01DX015 (ip), vehicle: carboxymethylcellulose (CMC) 94 % of control | dose: 351.0 mg/kg/injection, schedule: Q01DX015 (ip), vehicle: carboxymethylcellulose (CMC) 95 % of control

COC(=O)C(=O)CC(=O)c1ccc(OC)cc1
inactive: [19] 103 % of control | [20] 95 % of control | [22] 100 % of control

CCCCN1C(c2ccccc2)=CN(Cc2ccccc2)C=C1c1ccccc1
inactive: [19] 106 % of control | [20] 110 % of control | [22] 103 % of control
